The target in assay [1] is T1, ATP-dependent RNA helicase DDX42 (Homo sapiens, UniProt Q86XP3).
T1 sequence (Q86XP3 whole entry): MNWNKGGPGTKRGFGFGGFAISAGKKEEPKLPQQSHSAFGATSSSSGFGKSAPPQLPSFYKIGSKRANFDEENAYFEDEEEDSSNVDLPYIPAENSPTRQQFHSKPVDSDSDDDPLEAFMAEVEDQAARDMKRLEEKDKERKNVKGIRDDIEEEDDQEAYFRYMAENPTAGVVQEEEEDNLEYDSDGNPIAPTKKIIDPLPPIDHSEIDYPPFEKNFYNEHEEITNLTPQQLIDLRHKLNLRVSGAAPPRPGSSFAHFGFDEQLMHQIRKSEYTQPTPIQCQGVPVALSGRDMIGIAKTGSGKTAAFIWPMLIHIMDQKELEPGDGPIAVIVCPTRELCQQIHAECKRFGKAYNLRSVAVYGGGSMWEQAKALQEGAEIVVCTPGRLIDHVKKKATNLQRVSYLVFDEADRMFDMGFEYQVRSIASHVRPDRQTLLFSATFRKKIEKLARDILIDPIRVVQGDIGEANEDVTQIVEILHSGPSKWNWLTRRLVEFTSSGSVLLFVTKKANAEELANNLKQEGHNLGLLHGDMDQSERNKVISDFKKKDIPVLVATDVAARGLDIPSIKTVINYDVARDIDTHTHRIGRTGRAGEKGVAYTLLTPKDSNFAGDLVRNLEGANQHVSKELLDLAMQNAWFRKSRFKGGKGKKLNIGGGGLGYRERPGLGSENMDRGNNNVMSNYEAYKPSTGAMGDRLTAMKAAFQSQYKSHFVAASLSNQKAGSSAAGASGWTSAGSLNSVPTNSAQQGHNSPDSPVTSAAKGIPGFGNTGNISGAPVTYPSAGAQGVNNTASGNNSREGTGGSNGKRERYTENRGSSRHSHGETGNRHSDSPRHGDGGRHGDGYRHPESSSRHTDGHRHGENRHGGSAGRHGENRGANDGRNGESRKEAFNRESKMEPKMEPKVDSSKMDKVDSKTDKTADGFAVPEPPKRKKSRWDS

Another assay concerns the target T2, Rab-like protein 3 (Homo sapiens, UniProt Q5HYI8).
T2 sequence (Q5HYI8 whole entry): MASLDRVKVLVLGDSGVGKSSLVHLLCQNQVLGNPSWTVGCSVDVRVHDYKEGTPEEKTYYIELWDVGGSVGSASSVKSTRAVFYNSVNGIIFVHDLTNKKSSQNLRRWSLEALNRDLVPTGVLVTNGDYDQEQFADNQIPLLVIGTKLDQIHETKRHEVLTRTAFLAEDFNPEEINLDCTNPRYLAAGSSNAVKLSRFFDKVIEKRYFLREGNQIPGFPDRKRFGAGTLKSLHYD

The next assay addresses T3, Ephrin type-B receptor 2 (Homo sapiens, UniProt P29323).
T3 sequence (P29323 whole entry): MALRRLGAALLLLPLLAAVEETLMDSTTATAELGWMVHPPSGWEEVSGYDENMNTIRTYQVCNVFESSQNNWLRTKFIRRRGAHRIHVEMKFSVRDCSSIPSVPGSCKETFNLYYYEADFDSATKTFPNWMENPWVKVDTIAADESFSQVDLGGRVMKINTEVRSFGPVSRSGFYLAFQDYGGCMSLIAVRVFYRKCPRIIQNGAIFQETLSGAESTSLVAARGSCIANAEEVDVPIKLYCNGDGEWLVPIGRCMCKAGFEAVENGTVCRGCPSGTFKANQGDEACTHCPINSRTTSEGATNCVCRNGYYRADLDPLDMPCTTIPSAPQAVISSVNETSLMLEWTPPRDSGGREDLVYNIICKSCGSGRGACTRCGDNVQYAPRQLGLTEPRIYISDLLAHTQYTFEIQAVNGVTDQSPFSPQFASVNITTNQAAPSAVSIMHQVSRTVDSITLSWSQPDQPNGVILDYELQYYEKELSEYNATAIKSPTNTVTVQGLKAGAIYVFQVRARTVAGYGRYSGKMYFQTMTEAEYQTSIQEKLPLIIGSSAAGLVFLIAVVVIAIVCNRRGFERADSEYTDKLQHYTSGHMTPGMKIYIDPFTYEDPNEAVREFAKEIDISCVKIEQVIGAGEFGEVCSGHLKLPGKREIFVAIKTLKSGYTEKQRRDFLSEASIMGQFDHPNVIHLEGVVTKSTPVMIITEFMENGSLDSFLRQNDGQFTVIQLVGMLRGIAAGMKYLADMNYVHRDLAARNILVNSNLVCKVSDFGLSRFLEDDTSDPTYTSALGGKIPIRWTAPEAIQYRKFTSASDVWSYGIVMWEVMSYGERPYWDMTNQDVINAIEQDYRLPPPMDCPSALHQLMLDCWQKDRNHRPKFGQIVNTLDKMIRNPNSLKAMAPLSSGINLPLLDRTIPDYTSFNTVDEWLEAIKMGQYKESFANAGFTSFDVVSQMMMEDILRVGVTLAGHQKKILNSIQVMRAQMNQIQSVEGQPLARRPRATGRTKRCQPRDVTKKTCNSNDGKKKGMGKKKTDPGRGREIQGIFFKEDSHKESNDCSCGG

The target of assay [2] is T4, Serine/threonine-protein kinase Nek2 (Homo sapiens, UniProt P51955).
T4 sequence (P51955 whole entry): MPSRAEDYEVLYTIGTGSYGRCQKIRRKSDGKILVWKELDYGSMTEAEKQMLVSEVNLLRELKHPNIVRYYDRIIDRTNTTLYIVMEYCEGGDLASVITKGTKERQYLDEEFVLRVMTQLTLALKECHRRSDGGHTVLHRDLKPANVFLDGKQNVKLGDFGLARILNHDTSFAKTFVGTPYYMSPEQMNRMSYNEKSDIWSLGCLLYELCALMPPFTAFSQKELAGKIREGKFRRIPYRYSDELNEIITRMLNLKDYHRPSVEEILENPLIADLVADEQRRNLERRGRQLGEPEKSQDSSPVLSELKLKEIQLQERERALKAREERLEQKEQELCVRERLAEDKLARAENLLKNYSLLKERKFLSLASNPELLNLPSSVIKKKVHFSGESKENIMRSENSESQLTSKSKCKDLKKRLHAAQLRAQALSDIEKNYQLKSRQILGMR

Assay [3] has as its target Protein-tyrosine kinase 2-beta (Homo sapiens, UniProt Q14289).
In assay [4] the target is Mitogen-activated protein kinase 3 (Homo sapiens, UniProt P27361).

Molecules are shown by their SMILES. Calls of active or inactive are those of the source. Bounds are passed on as bounds.
Note: in the data inactive means no Kd found up to 30 µM.

Sequence of Protein-tyrosine kinase 2-beta (Q14289 whole entry): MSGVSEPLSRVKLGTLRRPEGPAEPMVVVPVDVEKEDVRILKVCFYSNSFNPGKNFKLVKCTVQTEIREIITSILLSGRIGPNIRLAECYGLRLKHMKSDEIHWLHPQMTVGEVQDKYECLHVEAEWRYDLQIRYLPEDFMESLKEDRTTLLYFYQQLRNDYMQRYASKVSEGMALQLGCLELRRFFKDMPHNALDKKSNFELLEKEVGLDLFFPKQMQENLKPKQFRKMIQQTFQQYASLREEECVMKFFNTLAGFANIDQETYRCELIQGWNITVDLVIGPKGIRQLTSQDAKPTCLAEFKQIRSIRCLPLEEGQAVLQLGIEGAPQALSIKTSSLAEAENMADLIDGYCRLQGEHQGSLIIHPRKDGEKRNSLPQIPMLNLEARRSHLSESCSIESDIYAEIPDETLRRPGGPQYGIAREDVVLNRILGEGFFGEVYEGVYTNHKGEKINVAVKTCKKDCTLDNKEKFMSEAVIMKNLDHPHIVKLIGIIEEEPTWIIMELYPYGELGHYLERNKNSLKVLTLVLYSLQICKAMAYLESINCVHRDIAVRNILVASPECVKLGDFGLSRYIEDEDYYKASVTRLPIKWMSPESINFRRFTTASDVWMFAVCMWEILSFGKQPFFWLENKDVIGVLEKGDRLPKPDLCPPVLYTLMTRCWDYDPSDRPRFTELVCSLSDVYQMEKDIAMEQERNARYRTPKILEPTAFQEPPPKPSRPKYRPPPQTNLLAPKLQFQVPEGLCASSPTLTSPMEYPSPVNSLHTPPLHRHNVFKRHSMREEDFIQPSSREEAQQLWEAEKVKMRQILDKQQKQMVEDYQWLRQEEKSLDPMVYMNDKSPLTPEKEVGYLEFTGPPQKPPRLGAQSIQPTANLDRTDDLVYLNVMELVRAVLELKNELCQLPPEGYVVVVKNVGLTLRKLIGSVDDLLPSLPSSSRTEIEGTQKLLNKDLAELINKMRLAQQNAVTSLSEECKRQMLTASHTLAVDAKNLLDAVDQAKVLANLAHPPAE
Sequence of Mitogen-activated protein kinase 3 (P27361 whole entry): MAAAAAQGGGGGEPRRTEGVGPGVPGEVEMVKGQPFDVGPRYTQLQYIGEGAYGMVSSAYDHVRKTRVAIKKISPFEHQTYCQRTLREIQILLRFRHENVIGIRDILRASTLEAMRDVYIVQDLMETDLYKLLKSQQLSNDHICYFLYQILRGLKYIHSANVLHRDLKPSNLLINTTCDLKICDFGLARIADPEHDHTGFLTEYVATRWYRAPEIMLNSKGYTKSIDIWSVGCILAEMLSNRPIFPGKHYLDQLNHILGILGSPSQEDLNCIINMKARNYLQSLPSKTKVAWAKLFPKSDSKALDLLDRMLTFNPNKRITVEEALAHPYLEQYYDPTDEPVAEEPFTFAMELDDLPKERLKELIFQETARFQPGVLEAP

For `COCCNCc1ccc(-c2cc3nccc(Oc4ccc(NC(=S)NC(=O)Cc5ccc(F)cc5)cc4F)c3s2)nc1` [GLESATINIB], the Kd (in assay [1]; on Rab-like protein 3; on Ephrin type-B receptor 2; in assay [2]; in assay [3]; in assay [4]) was > 30 µM (inactive) in each case.

Regarding `Cn1cc(-c2ccc3nnc(C(F)(F)c4ccc5ncccc5c4)n3n2)cn1` [JNJ-38877605], the Kd (in assay [1]; on Rab-like protein 3; at Ephrin type-B receptor 2; in assay [2]; in assay [3]; in assay [4]) was > 30 µM (inactive) throughout.

As for `CC[C@H](Nc1ncnc2[nH]cnc12)c1nc2cccc(F)c2c(=O)n1-c1ccccc1` [IDELALISIB], the Kd (in assay [1]; at Rab-like protein 3; at Ephrin type-B receptor 2; in assay [2]; in assay [3]; in assay [4]) was > 30 µM (inactive) in each case.

As to `CN1CC[C@@H](c2c(O)cc(O)c3c(=O)cc(-c4ccccc4Cl)oc23)[C@@H]1CO`, the Kd (as a rule, the free concentration of one partner at which half of the binding sites on the other are occupied at equilibrium, for simple one-to-one binding) in assay [1] was 0.002 µM; on Rab-like protein 3, > 30 µM (inactive); at Ephrin type-B receptor 2, > 30 µM (inactive); in assay [2] it was > 30 µM (inactive); in assay [3], > 30 µM (inactive); in assay [4], > 30 µM (inactive).

As for `CN1N=C(N)c2cn([C@@H]3O[C@H](COP(=O)(O)O)[C@@H](O)[C@H]3O)c3ncnc1c23` [TRICIRIBINE PHOSPHATE], the Kd (in assay [1]; on Rab-like protein 3; on Ephrin type-B receptor 2; in assay [2]; in assay [3]; in assay [4]) was > 30 µM (inactive) in each case.

With `O=C(c1ccc(F)c(F)c1Nc1ccc(I)cc1F)N1CC(O)([C@@H]2CCCCN2)C1` [COBIMETINIB], the Kd (in assay [1]; on Rab-like protein 3; at Ephrin type-B receptor 2; in assay [2]; in assay [3]; in assay [4]) was > 30 µM (inactive) throughout.

For `Cc1cc(-c2cc(O)ccc2Cl)cc2nnc(Nc3ccc(OCCN4CCCC4)cc3)nc12`, the Kd was > 30 µM (inactive) in assay [1]; > 30 µM (inactive) at Rab-like protein 3; 0.002 µM (active) at Ephrin type-B receptor 2; > 30 µM (inactive) in assay [2]; > 30 µM (inactive) in assay [3]; > 30 µM (inactive) in assay [4].

The values are drawn from ChEMBL document CHEMBL3991601, “The target landscape of clinical kinase drugs” (Science, 2017).
